Test results: patent US5753240A, “Fluorinated compounds and compositions comprising them” (L'Oreal, priority 1994, dated 1998)

Assays:
Assay type in all cases: physicochemical
[1] = Thickening effect of Example 1 on various vehicles: Parleam oil; conditions: 0.2% in Parleam oil
Procedure: (§1) The thickening of the medium can be carried out by completely dissolving the fluorinated compound of formula I, at a temperature ranging from 20° C. to 80° C., and then by allowing the mixture to stand until it is completely thickened.
(§2) Thickening effect of Example 1 on various vehicles
(§3) As is evident, Sunflower refers to Sunflower oil and Parleam refers to Parleam oil. Eutanol G is a tradename for octyldodecanol and is manufactured by Henkel.
(§4) Gelled media were thus obtained.

[2] = Thickening effect of Example 1 on various vehicles: Sunflower oil; conditions: 0.2% in Sunflower oil
Procedure: as §1, §2, §3, §4

[3] = Thickening effect of Example 1 on various vehicles: Petroleum jelly; conditions: 0.2% in Petroleum jelly
Procedure: as §1, §2, §4

[4] = Thickening effect of Example 1 on various vehicles: Olive oil; conditions: 0.2% in Olive oil
Procedure: as §1, §2, §4

[5] = Stability of the thickened (gelled) media over time; conditions: over a period of over 6 months
From the text: as §4

[6] = Thickening effect of Example 1 on various vehicles: Perhydrosqualene; conditions: 0.2% in Perhydrosqualene
Procedure: as §1, §2, §4

## CCCCCCCCCCCCCCCCOC(=O)NCCCCCCCCCCC(=O)OCCC(F)(F)C(F)(F)C(F)(F)C(F)(F)C(F)(F)C(F)(F)C(F)(F)C(F)(F)F [Example 1, 2-(F-octyl)ethyl 11-(N-hexadecyloxycarbonyl)aminoundecanoate]
[1]
  Thickening effect: no effect
[2]
  Thickening effect: no effect
[3]
  Thickening effect: no effect
[4]
  Thickening effect: no effect
[5]
  Stability of thickened media: perfect stability
[6]
  Thickening effect: no effect
